{"source": "patent US10376520B2", "about": "“Methods for the treatment of cardiovascular disorders” (Galapagos NV, priority 2015, dated 2019)", "system": "RA patients", "test": "Atherogenic index, Study 2 (RA patients, monotherapy)", "format": "in vivo, human", "protocol": "As used herein, the term ‘atherogenic index’ refers to\nDouble-blind, placebo-controlled, monotherapy study in subjects with moderately to severely active RA who have an inadequate response to methotrexate (MTX) (oral or parenteral).\nTwelve weeks of treatment with Compound 1 (dosed as a [Compound 1:HCl:3H2O]) at 50 mg, 100 mg, or 200 mg q.d.; or placebo. At Week 12, all subjects on placebo and the subjects on the 50 mg dose who have not achieved 20% improvement in swollen joint count (SJC66) and tender joint count (TJC68) will be assigned to 100 mg q.d. in a blinded fashion and will continue treatment until Week 24. Subjects in the other groups will maintain their randomized treatment until Week 24.\nThe atherogenic index has been identified to be a good predictor of cardiovascular disorders risks and is calculated as follows: […]", "key": {"[1]": {"settings": "50 mg q.d. non responders switching to 100 mg q.d., week 1"}, "[2]": {"settings": "50 mg q.d. non responders switching to 100 mg q.d., week 2"}, "[3]": {"settings": "50 mg q.d. non responders switching to 100 mg q.d., week 4"}, "[4]": {"settings": "50 mg q.d. non responders switching to 100 mg q.d., week 8"}, "[5]": {"settings": "50 mg q.d. non responders switching to 100 mg q.d., week 12"}, "[6]": {"settings": "50 mg q.d. non responders switching to 100 mg q.d., week 16"}, "[7]": {"settings": "50 mg q.d. non responders switching to 100 mg q.d., week 20"}, "[8]": {"settings": "50 mg q.d. non responders switching to 100 mg q.d., week 24"}}}
{"smiles": "O=C(Nc1nc2cccc(-c3ccc(CN4CCS(=O)(=O)CC4)cc3)n2n1)C1CC1", "note": "[Compound 1, cyclopropanecarboxylic acid {5-[4-(1,1-dioxo-thiomorpholin-4-ylmethyl)-phenyl]-[1,2,4]triazolo[1,5-a]pyridin-2yl}-amide]", "values": [{"measurement": "Atherogenic index Mean percentage CFB - 24 weeks results", "setting": "[1]", "result": "−0.49", "unit": "%"}, {"measurement": "Atherogenic index Median CFB - 24 weeks results", "setting": "[1]", "result": 0.00, "unit": "mmol/L"}, {"measurement": "Atherogenic index Median percentage CFB - 24 weeks results", "setting": "[1]", "result": 0.00, "unit": "%"}, {"measurement": "Atherogenic index Mean percentage CFB - 24 weeks results", "setting": "[2]", "result": 0.40, "unit": "%"}, {"measurement": "Atherogenic index Median CFB - 24 weeks results", "setting": "[2]", "result": -0.10, "unit": "mmol/L"}, {"measurement": "Atherogenic index Median percentage CFB - 24 weeks results", "setting": "[2]", "result": "−2.38", "unit": "%"}, {"measurement": "Atherogenic index Median CFB - 24 weeks results", "setting": "[3]", "result": -0.20, "unit": "mmol/L"}, {"measurement": "Atherogenic index Median percentage CFB - 24 weeks results", "setting": "[3]", "result": "−6.67", "unit": "%"}, {"measurement": "Atherogenic index Mean percentage CFB - 24 weeks results", "setting": "[4]", "result": 3.03, "unit": "%"}, {"measurement": "Atherogenic index Median CFB - 24 weeks results", "setting": "[4]", "result": -0.20, "unit": "mmol/L"}, {"measurement": "Atherogenic index Median percentage CFB - 24 weeks results", "setting": "[4]", "result": "−6.82", "unit": "%"}, {"measurement": "Atherogenic index Mean percentage CFB - 24 weeks results", "setting": "[5]", "result": "−2.71", "unit": "%"}, {"measurement": "Atherogenic index Median CFB - 24 weeks results", "setting": "[5]", "result": -0.20, "unit": "mmol/L"}, {"measurement": "Atherogenic index Median percentage CFB - 24 weeks results", "setting": "[5]", "result": "−5.88", "unit": "%"}, {"measurement": "Atherogenic index Mean percentage CFB - 24 weeks results", "setting": "[6]", "result": "−3.31", "unit": "%"}, {"measurement": "Atherogenic index Median CFB - 24 weeks results", "setting": "[6]", "result": -0.20, "unit": "mmol/L"}, {"measurement": "Atherogenic index Median percentage CFB - 24 weeks results", "setting": "[6]", "result": "−5.00", "unit": "%"}, {"measurement": "Atherogenic index Mean percentage CFB - 24 weeks results", "setting": "[7]", "result": "−3.58", "unit": "%"}, {"measurement": "Atherogenic index Median CFB - 24 weeks results", "setting": "[7]", "result": -0.20, "unit": "mmol/L"}, {"measurement": "Atherogenic index Median percentage CFB - 24 weeks results", "setting": "[7]", "result": "−5.88", "unit": "%"}, {"measurement": "Atherogenic index Mean percentage CFB - 24 weeks results", "setting": "[8]", "result": "−7.04", "unit": "%"}, {"measurement": "Atherogenic index Median CFB - 24 weeks results", "setting": "[8]", "result": -0.30, "unit": "mmol/L"}, {"measurement": "Atherogenic index Median percentage CFB - 24 weeks results", "setting": "[8]", "result": "−9.97", "unit": "%"}, {"measurement": "Atherogenic index Mean percentage CFB - 24 weeks results", "setting": "50 mg q.d. responders, week 1", "result": "−0.34", "unit": "%"}, {"measurement": "Atherogenic index Median CFB - 24 weeks results", "setting": "50 mg q.d. responders, week 1", "result": -0.10, "unit": "mmol/L"}, {"measurement": "Atherogenic index Mean percentage CFB - 24 weeks results", "setting": "50 mg q.d. responders, week 2", "result": "−3.56", "unit": "%"}, {"measurement": "Atherogenic index Median CFB - 24 weeks results", "setting": "50 mg q.d. responders, week 2", "result": -0.05, "unit": "mmol/L"}, {"measurement": "Atherogenic index Mean percentage CFB - 24 weeks results", "setting": "50 mg q.d. responders, week 4", "result": "−2.87", "unit": "%"}, {"measurement": "Atherogenic index Median CFB - 24 weeks results", "setting": "50 mg q.d. responders, week 4", "result": -0.25, "unit": "mmol/L"}, {"measurement": "Atherogenic index Median percentage CFB - 24 weeks results", "setting": "50 mg q.d. responders, week 4", "result": "−7.69", "unit": "%"}, {"measurement": "Atherogenic index Mean percentage CFB - 24 weeks results", "setting": "50 mg q.d. responders, week 8", "result": "−2.06", "unit": "%"}, {"measurement": "Atherogenic index Median CFB - 24 weeks results", "setting": "50 mg q.d. responders, week 8", "result": -0.10, "unit": "mmol/L"}, {"measurement": "Atherogenic index Mean percentage CFB - 24 weeks results", "setting": "50 mg q.d. responders, week 12", "result": 0.89, "unit": "%"}, {"measurement": "Atherogenic index Median CFB - 24 weeks results", "setting": "50 mg q.d. responders, week 12", "result": -0.10, "unit": "mmol/L"}, {"measurement": "Atherogenic index Median percentage CFB - 24 weeks results", "setting": "50 mg q.d. responders, week 12", "result": "−2.56", "unit": "%"}, {"measurement": "Atherogenic index Mean percentage CFB - 24 weeks results", "setting": "50 mg q.d. responders, week 16", "result": 1.59, "unit": "%"}, {"measurement": "Atherogenic index Median CFB - 24 weeks results", "setting": "50 mg q.d. responders, week 16", "result": 0.00, "unit": "mmol/L"}, {"measurement": "Atherogenic index Median percentage CFB - 24 weeks results", "setting": "50 mg q.d. responders, week 16", "result": 0.00, "unit": "%"}, {"measurement": "Atherogenic index Median CFB - 24 weeks results", "setting": "50 mg q.d. responders, week 20", "result": -0.20, "unit": "mmol/L"}, {"measurement": "Atherogenic index Median percentage CFB - 24 weeks results", "setting": "50 mg q.d. responders, week 20", "result": "−4.04", "unit": "%"}, {"measurement": "Atherogenic index Median CFB - 24 weeks results", "setting": "50 mg q.d. responders, week 24", "result": -0.20, "unit": "mmol/L"}, {"measurement": "Atherogenic index Median percentage CFB - 24 weeks results", "setting": "50 mg q.d. responders, week 24", "result": "−5.77", "unit": "%"}, {"measurement": "Atherogenic index Mean CFB - 12 weeks results", "setting": "50 mg q.d., week 1", "result": 0.00, "unit": "mmol/L"}, {"measurement": "Atherogenic index Mean percentage CFB - 12 weeks results", "setting": "50 mg q.d., week 1", "result": "−0.38", "unit": "%"}, {"measurement": "Atherogenic index Median CFB - 12 weeks results", "setting": "50 mg q.d., week 1", "result": 0.00, "unit": "mmol/L"}, {"measurement": "Atherogenic index Median percentage CFB - 12 weeks results", "setting": "50 mg q.d., week 1", "result": 0.00, "unit": "%"}, {"measurement": "Atherogenic index Mean CFB - 12 weeks results", "setting": "50 mg q.d., week 2", "result": -0.10, "unit": "mmol/L"}, {"measurement": "Atherogenic index Median CFB - 12 weeks results", "setting": "50 mg q.d., week 2", "result": -0.10, "unit": "mmol/L"}, {"measurement": "Atherogenic index Median percentage CFB - 12 weeks results", "setting": "50 mg q.d., week 2", "result": "−2.38", "unit": "%"}, {"measurement": "Atherogenic index Mean CFB - 12 weeks results", "setting": "50 mg q.d., week 4", "result": -0.13, "unit": "mmol/L"}, {"measurement": "Atherogenic index Mean percentage CFB - 12 weeks results", "setting": "50 mg q.d., week 4", "result": "−2.63", "unit": "%"}, {"measurement": "Atherogenic index Median CFB - 12 weeks results", "setting": "50 mg q.d., week 4", "result": -0.20, "unit": "mmol/L"}, {"measurement": "Atherogenic index Median percentage CFB - 12 weeks results", "setting": "50 mg q.d., week 4", "result": "−7.69", "unit": "%"}, {"measurement": "Atherogenic index Mean CFB - 12 weeks results", "setting": "50 mg q.d., week 8", "result": -0.03, "unit": "mmol/L"}, {"measurement": "Atherogenic index Mean percentage CFB - 12 weeks results", "setting": "50 mg q.d., week 8", "result": "−0.95", "unit": "%"}, {"measurement": "Atherogenic index Median CFB - 12 weeks results", "setting": "50 mg q.d., week 8", "result": -0.10, "unit": "mmol/L"}, {"measurement": "Atherogenic index Median percentage CFB - 12 weeks results", "setting": "50 mg q.d., week 8", "result": "−2.70", "unit": "%"}, {"measurement": "Atherogenic index Mean CFB - 12 weeks results", "setting": "50 mg q.d., week 12", "result": 0.01, "unit": "mmol/L"}, {"measurement": "Atherogenic index Mean percentage CFB - 12 weeks results", "setting": "50 mg q.d., week 12", "result": 0.09, "unit": "%"}, {"measurement": "Atherogenic index Median CFB - 12 weeks results", "setting": "50 mg q.d., week 12", "result": -0.10, "unit": "mmol/L"}, {"measurement": "Atherogenic index Median percentage CFB - 12 weeks results", "setting": "50 mg q.d., week 12", "result": "−3.85", "unit": "%"}, {"measurement": "Atherogenic index Mean CFB - 12 weeks results", "setting": "100 mg q.d., week 1", "result": -0.05, "unit": "mmol/L"}, {"measurement": "Atherogenic index Mean percentage CFB - 12 weeks results", "setting": "100 mg q.d., week 1", "result": "−0.84", "unit": "%"}, {"measurement": "Atherogenic index Mean percentage CFB - 24 weeks results", "setting": "100 mg q.d., week 1", "result": "−0.84", "unit": "%"}, {"measurement": "Atherogenic index Median CFB - 12 weeks results", "setting": "100 mg q.d., week 1", "result": 0.00, "unit": "mmol/L"}, {"measurement": "Atherogenic index Median CFB - 24 weeks results", "setting": "100 mg q.d., week 1", "result": 0.00, "unit": "mmol/L"}, {"measurement": "Atherogenic index Median percentage CFB - 12 weeks results", "setting": "100 mg q.d., week 1", "result": 0.00, "unit": "%"}, {"measurement": "Atherogenic index Median percentage CFB - 24 weeks results", "setting": "100 mg q.d., week 1", "result": 0.00, "unit": "%"}, {"measurement": "Atherogenic index Mean CFB - 12 weeks results", "setting": "100 mg q.d., week 2", "result": -0.11, "unit": "mmol/L"}, {"measurement": "Atherogenic index Mean percentage CFB - 12 weeks results", "setting": "100 mg q.d., week 2", "result": "−2.82", "unit": "%"}, {"measurement": "Atherogenic index Mean percentage CFB - 24 weeks results", "setting": "100 mg q.d., week 2", "result": "−2.82", "unit": "%"}, {"measurement": "Atherogenic index Median CFB - 12 weeks results", "setting": "100 mg q.d., week 2", "result": -0.20, "unit": "mmol/L"}, {"measurement": "Atherogenic index Median CFB - 24 weeks results", "setting": "100 mg q.d., week 2", "result": -0.20, "unit": "mmol/L"}, {"measurement": "Atherogenic index Median percentage CFB - 12 weeks results", "setting": "100 mg q.d., week 2", "result": "−6.25", "unit": "%"}, {"measurement": "Atherogenic index Median percentage CFB - 24 weeks results", "setting": "100 mg q.d., week 2", "result": "−6.25", "unit": "%"}, {"measurement": "Atherogenic index Mean CFB - 12 weeks results", "setting": "100 mg q.d., week 4", "result": -0.19, "unit": "mmol/L"}, {"measurement": "Atherogenic index Mean percentage CFB - 12 weeks results", "setting": "100 mg q.d., week 4", "result": "−4.17", "unit": "%"}, {"measurement": "Atherogenic index Mean percentage CFB - 24 weeks results", "setting": "100 mg q.d., week 4", "result": "−4.17", "unit": "%"}]}
